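Briefly, cells in 96-well plates were exposed to five compound concentrations for 48 h, and endpoints were estimated by linear interpolation. GI50 = concentration required for 50% inhibition of growth. TGI: concentration producing complete growth inhibition.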
Columns and labels:
Test in all cases: inhibition of tumour cell growth, NCI panel, 48 h
786-0 renal = test system: 786-0 renal
HCC-2998 colon = test system: HCC-2998 colon
HCT-116 colon = test system: HCT-116 colon
HT29 colon = test system: HT29 colon
IGROV1 ovarian = test system: IGROV1 ovarian
KM12 colon = test system: KM12 colon
OVCAR-4 ovarian = test system: OVCAR-4 ovarian
OVCAR-5 ovarian = test system: OVCAR-5 ovarian
SNB-75 CNS = test system: SNB-75 CNS
UACC-257 melanoma = test system: UACC-257 melanoma

| Structure (SMILES) | GI50 (786-0 renal) [µM] | TGI (786-0 renal) [µM] | GI50 (HCC-2998 colon) [µM] | TGI (HCC-2998 colon) [µM] | GI50 (HCT-116 colon) [µM] | TGI (HCT-116 colon) [µM] | GI50 (HT29 colon) [µM] | TGI (HT29 colon) [µM] | GI50 (IGROV1 ovarian) [µM] | TGI (IGROV1 ovarian) [µM] | GI50 (KM12 colon) [µM] | TGI (KM12 colon) [µM] | GI50 (OVCAR-4 ovarian) [µM] | TGI (OVCAR-4 ovarian) [µM] | GI50 (OVCAR-5 ovarian) [µM] | TGI (OVCAR-5 ovarian) [µM] | GI50 (SNB-75 CNS) [µM] | TGI (SNB-75 CNS) [µM] | GI50 (UACC-257 melanoma) [µM] | TGI (UACC-257 melanoma) [µM] |
| --- | --- | --- | --- | --- | --- | --- | --- | --- | --- | --- | --- | --- | --- | --- | --- | --- | --- | --- | --- | --- |
| [Au+].c1c[n-]cn1.c1ccc([PH+](c2ccccc2)c2ccccc2)cc1 | 1.66 | 3.04 | 13.8 | 30.5 | 5.19 | 14.6 | 8 | 24.7 | 2.02 | 13.7 | 14.5 | 37.9 | 13.4 | 36.7 | 20.9 | 42.3 | 15.2 | 33.7 | 5.04 | 15.8 |
| Cc1ccc(S(=O)(=O)OC2CSSCC2OS(=O)(=O)c2ccc(C)cc2)cc1 (stereo not drawn) |  | 25.1 |  | 35.5 |  | 26 |  | 22 |  | 32.9 |  | 28.3 |  | 23.3 |  | 38 |  | 28.1 |  | 22.8 |
| COc1c(OC)c(OC)c(-c2cc(=O)c3c(OC)c(OC)c(OC)c(OC)c3o2)c(OC)c1OC |  | 37 |  | > 100 |  | 44.9 |  | 86.4 |  | 64.2 |  |  |  | 33.7 |  | > 100 |  | > 100 |  | > 100 |
| O=[P+](O)c1cccnc1 |  | > 100 |  | > 100 |  | > 100 |  | > 100 |  | > 100 |  | > 100 |  | > 100 |  | > 100 |  | > 100 |  | > 100 |
| COc1cc(=O)oc(/C=C/CO)c1C |  | > 100 |  | > 100 |  | > 100 |  | > 100 |  | > 100 |  | > 100 |  | > 100 |  | > 100 |  | > 100 |  | > 100 |
| COc1cc2oc(-c3ccc(O)cc3)cc(=O)c2c(OC)c1O |  | > 100 |  | > 100 |  | > 100 |  | > 100 |  | > 100 |  |  |  | > 100 |  | > 100 |  | 55.1 |  | > 100 |
| O=C(NCCCl)NCc1ccccc1 |  | > 100 |  | > 100 |  | > 100 |  | > 100 |  | > 100 |  | > 100 |  | > 100 |  | > 100 |  | > 100 |  | > 100 |
| COc1cc(/C=C2\CC3C4CCC5=CC(=O)CC[C@]5(C)C4CC[C@]3(C)C2=O)ccc1OCCN1CCCCC1 (stereo partly drawn) | 1.92 | 4.21 | 3.26 | 12.5 | 2.11 | 5.75 | 3.37 | 64.8 | 11.2 | > 100 | 1.69 | 3.52 | 8.35 | 92.2 | 8.26 | 28.5 | 6.97 | 24.8 | 4.8 | 18.4 |
| CN(CCCCN)c1ccc2c(=O)[nH][nH]c(=O)c2c1 |  | > 100 |  | > 100 |  | > 100 |  | > 100 |  | > 73.6 |  | > 100 |  | > 100 |  | > 100 |  | > 100 |  | > 100 |
| N/C(=N/N=C/c1cccc(F)c1)NO |  | > 100 |  | > 100 |  | > 100 |  | > 100 |  | > 100 |  | > 100 |  | > 100 |  | > 100 |  | > 100 |  | > 100 |
